Source: article PMC10455244, “Alpha-Mangostin: A Potent Inhibitor of TRPV3 and Pro-Inflammatory Cytokine Secretion in Keratinocytes” (International Journal of Molecular Sciences, 2023)

Tests used:
IL-6 = assay: ELISA, carvacrol-induced IL-6 release in NHEK; type: cell-based, human; conditions: 1 µM with 300 µM carvacrol, 24 h
Description: Constitutive activation of TRPV3 due to continuous stimulation or the presence of Olmsted mutations causes noticeable skin inflammation due to the increased secretion of pro-inflammatory cytokines from the keratinocytes. Besides, in atopic dermatitis (AD), cytokine release from keratinocytes contributes to the inflammatory environment, which drives many characteristic AD symptoms. Therefore, we determined the effect of TRPV3 activation on cytokine release instead of TRPV3 expression and evaluated whether alpha-mangostin suppressed TRPV3-mediated cytokine secretion in normal human keratinocytes. The levels of secreted cytokines (interleukin (IL)-6, IL-8, and tumor necrosis factor-alpha (TNF-α)) were measured using enzyme-linked Immunosorbent assay (ELISA) kits due to their high sensitivity and quantitation ability. The cells were induced with 300 µM carvacrol, with or without 1 µM alpha-mangostin, and 10 µM 74a.
Figure 5 Alpha-mangostin (α-MG) inhibited carvacrol-induced cytokine release in NHEK cells and rescued carvacrol-induced cell death. (A) Alpha-mangostin inhibited the carvacrol-induced release of IL-8 and IL-6 in NHEK. Cells were induced by 300 µM carvacrol with or without either 1 µM alpha-mangostin or 10 µM 74a for 24 h before the ELISA assay. (B) Alpha-mangostin reduced cell death caused by carvacrol in human keratinocytes. […]

[1] = tested on: TRPV3 (G573C)-expressing HEK 293T cells; assay: cells; type: cell-based; conditions: Homo sapiens, 24 h, read-out: Cell viability (normalized O.D., compared with mock cells)
Description: (§1) Figure 4 Alpha-mangostin inhibited the activity of hyperactive TRPV3 mutant channels and rescued mutation-induced cell death. (A) Alpha-mangostin inhibited the channel current in representative TRPV3 (G573S)- and TRPV3 (G573C)-expressing HEK 293T cells. […] Currents were normalized to the response at −100 mV before adding alpha-mangostin. (C) Alpha-mangostin inhibited TRPV3-mediated intracellular calcium increase in TRPV3 (G573S)-expressing HEK 293T cells. […] The bar graph on the right summarizes the change in the intracellular calcium rise inhibited by alpha-mangostin. Cells were perfused with calcium-free solutions containing 0 or 1 µM alpha-mangostin or 10 µM 74a before changing to 1.3 mM Ca^2+ solutions containing the same substance concentration. (D) Alpha-mangostin inhibited TRPV3-mediated intracellular calcium increase in TRPV3 (G573C)-expressing HEK 293T cells. […] The bar graph on the right summarizes the change in the intracellular calcium rise inhibited by alpha-mangostin. Cells were perfused with calcium-free solutions containing 0 or 1 µM alpha-mangostin or 10 µM 74a before changing to 1.3 mM Ca^2+ solutions containing the same substance concentration. […]
(§2) The cell counting kit-8 (CCK8; Dojindo Laboratories, Kumamoto, Japan) was employed for viability assay. […] The optical density (O.D., 450 nm) of each well was measured after incubating the cells with CCK-8 solution ([…]) for 2 h. […]

[2] = tested on: TRPV3 (G573S)-expressing HEK 293T cells; assay: cells; type: cell-based; conditions: Homo sapiens, 24 h, read-out: Cell viability (normalized O.D., compared with mock cells)
Description: as §1, §2

SMILES: COc1c(O)cc2oc3cc(O)c(CC=C(C)C)c(O)c3c(=O)c2c1CC=C(C)C [Alpha-mangostin]
- Effect on IL-6 levels (IL-6): slightly decreased
- viability at 1 µM [1]: 93.5%
- viability at 1 µM [2]: 86.8%
